Results on 7 compounds are retold here after patent US9045523B2, “Compounds” (PHAROS PHARMACEUTICALS INC., priority 2006, dated 2015).

For one series, the system named is inflamed joints. The note with it: Ronca et al; cited from earlier work.
The next series has as its system FGF receptors. The note with it: Yeh et al; cited from earlier work.
In series [1] the test system is antigen stimulated mice spleen cells. Conditions: in vitro; cited from earlier work.
Another series concerns IFN synthesis. Conditions: antigen stimulated mice spleen cells in vitro; cited from earlier work.
The next series relates to feline herpes infection. The note with it: reactivation of feline herpes infection; Roberts et al; cited from earlier work.
In another series the test system is interleukin-2 synthesis. The note with it: antigen stimulated mice spleen cells in vitro; cited from earlier work.
Another series deals with β-glucosidases. Conditions: Kolarova et al; cited from earlier work.
In a further series the test system is articular inflammation. The note with it: cited from earlier work.
Another series relates to interleukin-10 synthesis. Conditions: antigen stimulated mice spleen cells in vitro; cited from earlier work.
The conditions of series [2]: acid conditions of the stomach; cited from earlier work.
In series [3] the test system is TNFα synthesis. The series is described as follows: PHA stimulated human whole blood cytokine synthesis: TNFα. It counts as cell-based. Conditions: 0.01 μM, days 1-4, Bio-Plex. Here is the method:
(§1) Blood was taken from a healthy young volunteer, into heparin Vacutainers®. Whole-blood was diluted to give a final concentration of 1/10 in culture medium (CM). CM consisted of RPMI 1640 with L-glutamine, penicillin and streptomycin. PHA (phytohaemagglutinin) solution and N-acetyl-β,β-diglucosylamine octasulphate (DOS) and PHA solution were added to non-control samples. Final drug concentrations tested were 100 μM, 1 μM, 0.1 μM and 0.01 μM. All samples were tested in triplicate.
(§2) Reagents were placed in four sets of 24-well (6×4) flat-bottomed plates (Corning US) and incubated for 1, 2, 3 and 4 days respectively (incubator conditions: 37° C., humid and 5% CO2). […]
(§3) The protocol of Lagrelius et al. was followed (Cytokine, 2006, 33, pp. 156-165). The culture supernatants were analysed once for concentrations of IL-1α, IL-1β, IL-2, IL-4, IL-5, IL-6, IL-7, IL-10, IL-12, IL-13, IL-17, IFNγ, GCSF, GM-CSF, MCP-1, RANTES, VEGF and TNFα. The cytokines were measured simultaneously using a Bio-Plex assay. […] A monoclonal antibody specific for each cytokine of interest is coupled onto a particular set of beads with a known internal fluorescence, and several combinations of cytokine antibody coated beads can be included and thus multiple cytokines are measured simultaneously. […] A minimum of 100 beads per region were analysed. […]

The subject of series [4] is TNFα synthesis. The series can be described thus: TNFα synthesis in whole blood stimulated with 5 μg/ml PHA. The note with it: human whole blood 1:10, 5 μg/ml PHA for 4 days; 0.01, 0.1 or 1 μM; ELISA days 1-4. The series is classed as cell-based. As to the method: Human whole blood was diluted 1:10 in RPMI and stimulated with 5 μg/ml phytohaemagglutinin (PHA) for 4 days in the absence or presence of N-acetyl-β,β-diglucosylamine octasulphate (DOS) or N-acetyl-β,β-diglucosylamine oligosulphate 1200 at concentrations of 0.01, 0.1 or 1 μM. The TNFα concentrations were assayed by ELISA on days 1, 2, 3 and 4.

In another series the test system is IFNγ synthesis. The series can be described thus: PHA stimulated human whole blood cytokine synthesis: IFNγ. The series is classed as cell-based. Conditions: 0.01 μM, days 1-4. Here is the method: as §1, §2, §3
For the next series, the system named is IL-1α synthesis. The series is described as follows: PHA stimulated human whole blood cytokine synthesis: IL-1α. It counts as cell-based. The note with it: 0.01 μM, days 1-4. Here is the method: as §1, §2, §3
The next series relates to IL-4 synthesis. The series is described as follows: PHA stimulated human whole blood cytokine synthesis: IL-4. It counts as cell-based. Conditions: 0.01 μM, days 1-4. Here is the method: as §1, §2, §3
The test system of the next series is IL-5 synthesis. The series is described as follows: PHA stimulated human whole blood cytokine synthesis: IL-5. The note with it: 0.01 μM, days 1-4. It counts as cell-based. Here is the method:
as §1, §2, §3

The test system of another series is IL-6 synthesis. The series can be described thus: PHA stimulated human whole blood cytokine synthesis: IL-6. It counts as cell-based. Conditions: 0.01 μM, days 1-4. Here is the method:
as §1, §2, §3

Another series has as its system IL-10 synthesis. The series is described as follows: PHA stimulated human whole blood cytokine synthesis: IL-10. Conditions: 0.01 μM, days 1-4. It counts as cell-based. As to the method:
as §1, §2, §3

For the next series, the system named is GCSF synthesis. The series can be described thus: PHA stimulated human whole blood cytokine synthesis: GCSF. It counts as cell-based. The note with it: 0.01 μM, days 1-4. Here is the method:
as §1, §2, §3

The subject of the next series is IL-7 synthesis. The series is described as follows: PHA stimulated human whole blood cytokine synthesis: IL-7. Conditions: 0.01 μM, days 1-4. It counts as cell-based. As to the method:
as §1, §2, §3

The subject of a further series is IL-17 synthesis. The series can be described thus: PHA stimulated human whole blood cytokine synthesis: IL-17. It counts as cell-based. The note with it: 0.01 μM, days 1-4. As to the method:
as §1, §2, §3

For the next series, the system named is IL-2 synthesis. The series can be described thus: PHA stimulated human whole blood cytokine synthesis: IL-2. The series is classed as cell-based. The note with it: 0.01 μM, days 1-4. As to the method: as §1, §2, §3
The test system of the next series is IL-1β synthesis. The series can be described thus: PHA stimulated human whole blood cytokine synthesis: IL-1β. The series is classed as cell-based. Conditions: 0.01 μM, days 1-4. As to the method:
as §1, §2, §3

Series [5] relates to TNFα synthesis. The series is described as follows: LPS stimulated U937 macrophage TNFα synthesis. The series is classed as cell-based, human. The note with it: PMA differentiated U937; 80 nM lps 72 hours; 0.10, 1.00, 10.00 and 100.00 μM. As to the method:
U937 human monocytes were incubated with 5 μg/ml PMA (phorbol myristate acetate) for 5 days in order to induce differentiation. N-acetyl-β,β-diglucosylamine octasulphate (DOS) was added to the macrophages produced at concentrations of 0 (control), 0.10, 1.00, 10.00 and 100.00 μM.

The test system of another series is GM-CSF synthesis. The series is described as follows: PHA stimulated human whole blood cytokine synthesis: GM-CSF. The series is classed as cell-based. Conditions: 0.01 μM, days 1-4. Here is the method:
as §1, §2, §3

The next series relates to VEGF synthesis. The series is described as follows: PHA treated human whole blood cytokine synthesis: VEGF. The series is classed as cell-based. The note with it: 0.01 μM; human whole blood in which VEGF synthesis has been inhibited by PHA; days 1-4. Here is the method:
as §1, §2, §3

The test system of a further series is IL-13 synthesis. The series is described as follows: PHA stimulated human whole blood cytokine synthesis: IL-13. The note with it: 0.01 μM, days 1-4. It counts as cell-based. Here is the method: as §1, §2, §3
In a further series the target is hepatocyte growth factor (Homo sapiens, UniProt P14210). The note with it: Zhou et al; cited from earlier work.
The subject of series [6] is C-type lectin-like domain of a recombinant natural killer cell receptor. Conditions: Kogelberg et al; cited from earlier work.
Series [7] addresses pro-inflammatory chemokine MCP-1 (Homo sapiens, UniProt P13500). The note with it: Yonghao et al; cited from earlier work.
The next series deals with follistatin (Rattus norvegicus, UniProt P21674). Conditions: Innis et al; cited from earlier work.
For series [8] the following is noted: Cahalon et al; cited from earlier work.

Sequence of hepatocyte growth factor (P14210 31-127 limits assumed, species assumed): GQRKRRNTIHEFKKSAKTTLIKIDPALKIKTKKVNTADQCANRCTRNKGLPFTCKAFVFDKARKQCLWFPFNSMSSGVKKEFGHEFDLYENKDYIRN
Sequence of follistatin (P21674 93-165 limits assumed): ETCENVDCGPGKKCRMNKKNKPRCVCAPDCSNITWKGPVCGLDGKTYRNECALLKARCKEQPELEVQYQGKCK
Sequence of pro-inflammatory chemokine MCP-1 (P13500 24-99): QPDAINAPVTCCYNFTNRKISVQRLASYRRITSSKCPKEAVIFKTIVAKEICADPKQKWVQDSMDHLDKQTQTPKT

Turning to chondroitin sulphate, in the series with inflamed joints, the “inflammatory cell accumulation and inflammation” value is “reduces inflammatory cell accumulation and inflammation”.

In the case of 4,6-dihydroxysucrose hexasulphate, the “FGF dependent dimerisation of FGF receptors” value (“FGF dependent dimerisation” below) in the series with FGF receptors is listed as “not at all”.

Consider `OC[C@H]1O[C@@H](N[C@@H]2O[C@H](CO)[C@@H](O)[C@H](O)[C@H]2O)[C@H](O)[C@@H](O)[C@@H]1O` [di-β-D-glucosylamine], for which, in [1], the “antigen induced immune cell proliferation” value was “inhibits”. The IFN synthesis entry in the series with IFN synthesis is “inhibits”. Besides, the “development of ocular inflammation” value in the series on feline herpes infection is “prevents the development of ocular inflammation”. The interleukin-2 synthesis entry in the series on interleukin-2 synthesis is “inhibits”. Moreover, in the series with β-glucosidases, the “inhibition of β-glucosidases” value was “inhibit β-glucosidases”. The articular inflammation result in the series on articular inflammation (mice, parenteral routes, Bolton et al) is given as “inhibits articular inflammation”. The “activity by the oral route” value in the series on articular inflammation (oral route) is “inactive”. The interleukin-10 synthesis result with interleukin-10 synthesis was “inhibits”. Besides, in series [2], the “hydrolysis of the glycosylamine group” value is recorded as “readily hydrolysed”.

In the case of `CC(=O)N([C@@H]1O[C@H](COS(=O)(=O)O)[C@@H](OS(=O)(=O)O)[C@H](OS(=O)(=O)O)[C@H]1OS(=O)(=O)O)[C@@H]1O[C@H](COS(=O)(=O)O)[C@@H](OS(=O)(=O)O)[C@H](OS(=O)(=O)O)[C@H]1OS(=O)(=O)O` [N-acetyl-β,β-diglucosylamine octasulphate], the “PHA stimulated synthesis of TNFα” value in the series on TNFα synthesis [3] was “inhibits”. Further, the “inhibition of TNFα synthesis” value was “effectively inhibit TNFα synthesis” in the series on TNFα synthesis [4] and “inhibited TNFα synthesis at all concentrations down to 0.1 μM” in the series on TNFα synthesis [5]. In addition, the “PHA stimulated synthesis of IFNγ” value with IFNγ synthesis is reported as “inhibits”. Besides, in the series on IL-1α synthesis, the “PHA stimulated synthesis of IL-1α” value is reported as “inhibits”. Besides, the “PHA stimulated synthesis of IL-4” value with IL-4 synthesis was “inhibits”. In addition, the “PHA stimulated synthesis of IL-5” value with IL-5 synthesis is recorded as “inhibits”. In the series with IL-6 synthesis, the “PHA stimulated synthesis of IL-6” value is given as “inhibits”. In addition, the “PHA stimulated synthesis of IL-10” value in the series on IL-10 synthesis is “inhibits”. Also, the “PHA stimulated synthesis of GCSF” value with GCSF synthesis is “inhibits”. Further, the “level of IL-7” value in the series with IL-7 synthesis is given as “increased”. In addition, in the series with IL-17 synthesis, the “PHA stimulated synthesis of IL-17” value was “inhibits”. Further, in the series on IL-2 synthesis, the “PHA stimulated synthesis of IL-2” value was “inhibits”. Also, the “PHA stimulated synthesis of IL-1β” value in the series with IL-1β synthesis was “inhibits”. In addition, in the series with GM-CSF synthesis, the “PHA stimulated synthesis of GM-CSF” value is recorded as “inhibits”. For the same compound, the “level of VEGF” value in the series on VEGF synthesis is recorded as “increased”. Also, the “PHA stimulated synthesis of IL-13” value in the series on IL-13 synthesis is given as “inhibits”.

Regarding `O=S(=O)(O)OC[C@H]1O[C@@](COS(=O)(=O)O)(O[C@H]2O[C@H](COS(=O)(=O)O)[C@@H](OS(=O)(=O)O)[C@H](OS(=O)(=O)O)[C@H]2OS(=O)(=O)O)[C@@H](OS(=O)(=O)O)[C@@H]1OS(=O)(=O)O` [sucrose octasulphate], the “binding to hepatocyte growth factor” value at hepatocyte growth factor is “bind”. Further, the “binding to natural killer cell receptor C-type lectin-like domain” value in series [6] is “bind”. The “binding to MCP-1” value in series [7] is recorded as “bind”. The binding to follistatin result on follistatin was “bind”. The “FGF dependent dimerisation” value with FGF receptors is recorded as “induced FGF dependent dimerisation of FGF receptors”.

Turning to `CC(=O)N[C@H]1C(O)O[C@H](CO)[C@@H](O[C@@H]2OC(C(=O)O)=C[C@H](O)[C@H]2O)[C@@H]1O` (stereo partly drawn) [desulphated heparin disaccharide, O-(α-L-ido-4-enepyranosyluronic acid)-(1→4)-2-deoxy-N-acetyl-D-glucoseamine], the “effectiveness as an anti-inflammatory agent” value in series [8] was “ineffective”.

Consider 2-hydroxysucrose heptasulphate, for which the “FGF dependent dimerisation” value in the series with FGF receptors is “much lesser extent”.
